Ten molecules from PubChem BioAssay (NCI) can be followed below.

“And” between values parts separate entries of the source, which are not always exact repeats. Identical values can stand only once.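 These data come from cells grown in 96-well plates and exposed to compound for 48 hours at five concentrations. Abbreviation: GI50, concentration required for 50% inhibition of growth. The concentration for full growth arrest is given as TGI.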

Assay in all cases: NCI tumour cell line growth inhibition, 48 h
Experiment [1] concerns CAKI-1 renal.
In experiment [2] the test system is EKVX NSCLC.
The test system of experiment [3] is NCI/ADR-RES ovarian.
Experiment [4] relates to RPMI-8226 leukemia.
Experiment [5] relates to RXF 393 renal.
Experiment [6] relates to SF-295 CNS.
For experiment [7], the system named is SK-MEL-2 melanoma.
The test system of experiment [8] is SK-MEL-5 melanoma.
The subject of experiment [9] is SK-OV-3 ovarian.
Experiment [10] has as its system TK-10 renal.

For the molecule `Cc1c2cc[n+](C)cc2c(COC2OC(CO)C(O)C2O)c2c3ccccc3n(C)c12` (stereo unspecified), the TGI in experiment [1], in experiment [2], in experiment [3], in experiment [4], in experiment [5] and in [6] was over 100 µM in each case. Further, the results for the TGI in experiment [7], in experiment [8] and in experiment [9] were over 100 µM, over 100 µM and 99.1 µM, respectively.
Consider `COc1cc2c(cc1-c1c(C)noc1C)ncc1nc(C3CCCCC3)n(C3CCC(OC(F)F)CC3)c12` (stereo unspecified), for which the GI50 is 1.03 µM in experiment [1], 2.31 µM in experiment [2] and 1.33 µM in [5]. Also, the figures for the TGI in [1], in [2] and in experiment [5] were over 100 µM, over 100 µM and 3.99 µM, respectively.
Regarding `CC(=O)O[C@H]1C(=O)[C@]2(C)[C@@H](OC(=O)OCC(O)CO)C[C@H]3OC[C@@]3(OC(C)=O)[C@H]2[C@H](OC(=O)c2ccccc2)[C@]2(O)C[C@H](OC(=O)[C@H](O)[C@@H](NC(=O)c3ccccc3)c3ccccc3)C(C)=C1C2(C)C` (stereo partly specified), the TGI was over 68.8 µM in [1]; over 100 µM in [2]; 4.94 µM in experiment [3]; under 0.01 µM in [4]; 1.04 µM in [5]; 19.6 µM in [8]. Besides, the figures for the TGI in experiment [9] and in experiment [10] were over 100 µM and 70.8 µM, respectively.
With `CC(=O)OC1CC2(O)C(CCC3(C)C(c4ccc(=O)oc4)CCC32O)C2(C)CCC(O)C=C12` (stereo unspecified), the GI50 in [1] was 0.015 µM; in experiment [2], 0.0375 µM; in [3], 0.0375 µM; in experiment [4] it was 0.0375 µM; in experiment [5], 0.00624 µM; in [6] it was 0.0375 µM. Further, the figures for the GI50 in experiment [7], in experiment [8] and in experiment [9] were 0.0375 µM, 0.0375 µM and 0.0435 µM, respectively. Moreover, the TGI in experiment [1] was 0.124 µM and 0.0425 µM; in experiment [2] it was 0.123 µM and 0.0477 µM; in experiment [3], 0.143 µM and 0.255 µM; in [4] it was 0.134 µM and 0.0803 µM; in experiment [5] it was 0.027 µM and 0.0399 µM; in experiment [6], 0.0982 µM and 0.0635 µM. Also, the TGI was 0.0542 µM and 0.0976 µM in experiment [7]; 0.046 µM and 0.04 µM in [8]; 0.104 µM and 0.117 µM in [9].
For the molecule `CC(C)(C)CC(C)(C)Cc1ccc(OCCOCC[N+](C)(C)Cc2ccccc2)cc1`, the GI50 was 3.47 µM in experiment [1]; 21.5 µM in experiment [3]; 1.42 µM in [5]; 3.62 µM in [6]; 0.517 µM in experiment [8]; 2.71 µM in experiment [9]. Further, in experiment [10], the GI50 was 2.83 µM. The TGI in experiment [1] came out at 13.8 µM; in experiment [3] it was 58.6 µM; in experiment [5], 3 µM; in [6], 15.5 µM; in experiment [8], 1.79 µM; in experiment [9], 12.4 µM. The same molecule returned a TGI in experiment [10] of 12.7 µM.
As for `Cc1c2cc[n+](C)cc2c(C)c2c1[nH]c1ccc(O)cc12`, the TGI is over 100 µM in [1]; 83.4 µM in experiment [2]; over 100 µM in experiment [3]; over 100 µM in experiment [4]; over 100 µM in experiment [5]; 64.7 µM in [6]. Also, the TGI in experiment [7] was over 96.9 µM; in experiment [8] it was 58.8 µM; in experiment [9], over 100 µM; in [10], over 100 µM.
In the case of `CCOC(=O)c1c(NC(=S)NCc2ccccc2)sc2c1CCN(C)C2`, the TGI in [1], in experiment [2], in [3], in experiment [4], in [6] and in experiment [7] was over 100 µM throughout. The TGI in [8] and in [10] was over 100 µM in each case.
In the case of `O=c1c(-c2ccccc2)c[nH]c2cc([N+](=O)[O-])c(/C(Cl)=C/c3ccccc3)cc12`, the TGI was 87.7 µM in experiment [1]; 18.6 µM in experiment [2]; 25.5 µM in experiment [3]; 9.98 µM in experiment [4]; 29.5 µM in experiment [5]; 26.5 µM in experiment [6]. For the same molecule, the TGI in experiment [7] was over 100 µM; in [8] it was 25.8 µM; in experiment [9], over 100 µM.
For the molecule `COc1cccc2c1C(=O)c1c(O)c3c(c(O)c1C2=O)C[C@@](O)(C(C)=O)C[C@@H]3OC1CC(N)C(O)C(C)O1` (stereo partly specified), the GI50 in experiment [2] was 0.266 µM; in experiment [4], 0.0136 µM; in [5], 0.0602 µM; in [6], under 0.0147 µM; in [7] it was 0.122 µM; in experiment [8], under 0.018 µM. The GI50 in experiment [9] was 0.0189 µM; in experiment [10], 0.144 µM.
`CN1CCN(c2ccc3nc(-c4ccc(OCCCN5C(=O)c6cccc7cccc(c67)C5=O)cc4)[nH]c3c2)CC1`: the GI50 in [1] was 18.8 µM; in experiment [3], 2.09 µM; in experiment [4] it was 2.58 µM; in [5], 10 µM; in experiment [6] it was 14.5 µM; in [7] it was 25.2 µM. The GI50 in experiment [9] is 10.8 µM; in [10], 8.54 µM. Also, the TGI in experiment [1] was over 100 µM; in [3] it was 4.7 µM; in experiment [4], 7.75 µM; in experiment [5], 41.7 µM; in [6] it was 89.2 µM; in [7] it was 62.4 µM. The TGI in experiment [9] was 37.5 µM; in [10], over 71.2 µM.
